Measurements: patent US20250059208A1, “KRAS MODULATING COMPOUNDS” (priority 2023, published 2025)

Tests used:
[1] = system: cellular pERK in Kuramochi (WT KRAS) cell-line; experiment: Cell based pERK assay, Kuramochi; details: 2 h, Kuramochi (WT KRAS) cells, 2 hours compound incubation, HTRF Phospho-ERK1/2
Protocol: (§1) Compounds were tested in a 384-well assay format for their ability to inhibit cellular pERK in Kuramochi (WT KRAS), MIA-PaCa-2 (KRAS-G12C), ASPC-1 (KRAS G12D), and NCI-H441 (KRAS-G12V) cell-lines. Compounds were serially diluted (1:3) in DMSO. On day −1, 80 μL of cells were plated per well in the 384 well tissue-culture plates (Greiner: Cat #781080) to seed 5000 cells per wells of AsPC-1 or 7500 cells of MIA-PaCa-2, NCI-H441, and Kuramochi cell lines in RPMI (Corning: Cat #10-040-CM) with 10% fetal bovine serum (FBS) (HyClone: Cat #SH30071-03) and IX penicillin-streptomycin-glutamate (PSG) (Corning: Cat #30-009-C1) for […] and Kuramochi cell lines and DMEM (Corning: Cat #15-018-CM) with 10% FBS and 1×PSG for MIA-PaCa-2 cell line. The plates were then incubated overnight at 37° C. and 5% CO2. On day 0, 400 nL of compound/well was added into the cell plates and mixed 5 times by pipetting using a Beckmann Biomek FX. The cell plates were then incubated for 2 hours at 37° C. and 5% CO2. HTRF Advanced Phospho-ERK1/2 (THR202/TYR204) Detection Kits (PerkinElmer: Cat #64AERPEG) were used to prepare the lysis and detection solution according to manufacturer protocol. Following the 2 hour incubation, 70 μL of medium was aspirated from the plates and 10 μL of lysis and detection solution was added to the plates using a Biotek EL406 washer and dispenser. Plates were sealed and stored overnight at room temperature. HTRF ratio (665 nm/615 nm) was read by Envision multimode reader (PerkinElmer) the next day. The TR-FRET ratios were normalized to a positive (saturating concentration of known inhibitor) and negative (DMSO) control and plotted against the log of compound concentration.

[2] = system: cellular pERK in MIA-PaCa-2 (KRAS-G12C) cell-line; experiment: Cell based pERK assay, MIA-PaCa-2; details: Homo sapiens; MIA-PaCa-2 (KRAS-G12C) cells, 2 hours compound incubation, HTRF Phospho-ERK1/2; read-out: MIAPaCa2 pERK EC50
Protocol: as §1

[3] = molecular target: GDP-loaded wild-type KRAS (WT) (Homo sapiens, UniProt P01116); experiment: KRAS (GDP) biochemical TR-FRET probe displacement assay, WT; assay type: binding; details: 2 hours at room temperature
Protocol: (§2) • Compounds were tested for binding to GDP-loaded wild-type KRAS (WT), KRAS-G12C, KRAS-G12D, and KRAS-G12V in a 384-well assay format using a TR-FRET probe displacement assay in buffer consisting of 50 mM Hepes (pH 7.4), 150 mM NaCl. 5 mM MgCl2 and 0.005% Tween-20. 0.03 nM KRAS was used in this assay with 0.02 nM Eu-streptavidin and 12 nM Cy-5 labelled probe. Compounds were serially diluted (1:3) in DMSO. The LabCyte ECHO Acoustic dispenser was used to pre-spot the assay plates (384-well Non-Binding Surface plates, Corning, Catalog #3824) with 50 nL of compound. 5 μL of 2× enzyme concentration was added to the pre-spotted plates and incubated for 30 minutes before adding 5 μL of 2× concentration of Eu-streptavidin and Cy-5 labelled probe (10 μL final reaction volume). The plates were incubated at room temperature for 2 hours before measuring TR-FRET ratio (665 nm/615 nm) on the Envision multimode plate reader. The ratios were normalized to a positive (saturating concentration of known inhibitor) and negative (DMSO) control and plotted against the log of compound concentration. […]

GDP-loaded KRAS-G12V = GDP-loaded KRAS-G12V (Homo sapiens, UniProt P01116, G12V); experiment: KRAS (GDP) biochemical TR-FRET probe displacement assay, G12V; assay type: binding; details: 2 hours at room temperature
Protocol: as §2

[4] = system: cellular pERK in NCI-H441 (KRAS-G12V) cell-line; experiment: Cell based pERK assay, NCI-H441; details: Homo sapiens; NCI-H441 (KRAS-G12V) cells, 2 hours compound incubation, HTRF Phospho-ERK1/2
Protocol: as §1

GDP-loaded KRAS-G12C = GDP-loaded KRAS-G12C (Homo sapiens, UniProt P01116, G12C); experiment: KRAS (GDP) biochemical TR-FRET probe displacement assay, G12C; assay type: binding; details: 2 hours at room temperature
Protocol: as §2

GDP-loaded KRAS-G12D = GDP-loaded KRAS-G12D (Homo sapiens, UniProt P01116, G12D); experiment: KRAS (GDP) biochemical TR-FRET probe displacement assay, G12D; assay type: binding; details: 2 hours at room temperature
Protocol: as §2

[5] = system: cellular pERK in ASPC-1 (KRAS G12D) cell-line; experiment: Cell based pERK assay, ASPC-1; details: Homo sapiens, ASPC1, 2 h, ASPC-1 (KRAS G12D) cells, 2 hours compound incubation, HTRF Phospho-ERK1/2
Protocol: as §1

GDP-loaded KRAS-G12V, sequence (P01116 1-188 isoform P01116-2 G12V): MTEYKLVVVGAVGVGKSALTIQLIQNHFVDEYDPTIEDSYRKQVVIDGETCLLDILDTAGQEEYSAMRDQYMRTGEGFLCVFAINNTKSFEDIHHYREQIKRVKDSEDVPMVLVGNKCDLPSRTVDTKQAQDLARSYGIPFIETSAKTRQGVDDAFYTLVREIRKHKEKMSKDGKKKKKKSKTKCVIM
GDP-loaded wild-type KRAS (WT), sequence (P01116 1-188 isoform P01116-2): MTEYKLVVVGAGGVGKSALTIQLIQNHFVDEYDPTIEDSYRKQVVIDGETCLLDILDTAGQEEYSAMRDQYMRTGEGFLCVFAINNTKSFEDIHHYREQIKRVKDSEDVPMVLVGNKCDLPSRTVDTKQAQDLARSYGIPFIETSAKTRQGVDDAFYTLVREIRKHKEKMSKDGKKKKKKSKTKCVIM
GDP-loaded KRAS-G12C, sequence (P01116 1-188 isoform P01116-2 G12C): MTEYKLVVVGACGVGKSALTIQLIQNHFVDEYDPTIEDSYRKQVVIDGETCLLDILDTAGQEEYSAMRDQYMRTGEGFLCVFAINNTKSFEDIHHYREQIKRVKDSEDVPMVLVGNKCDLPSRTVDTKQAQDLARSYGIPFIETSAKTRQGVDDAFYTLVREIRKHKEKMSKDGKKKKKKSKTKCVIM
GDP-loaded KRAS-G12D, sequence (P01116 1-188 isoform P01116-2 G12D): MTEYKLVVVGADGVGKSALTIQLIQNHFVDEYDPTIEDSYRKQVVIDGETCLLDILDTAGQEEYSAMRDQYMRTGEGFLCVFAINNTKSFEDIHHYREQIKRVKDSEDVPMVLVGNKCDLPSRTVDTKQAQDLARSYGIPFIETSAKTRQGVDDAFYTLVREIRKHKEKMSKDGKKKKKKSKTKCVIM

SMILES: Cc1cc(-c2ncc3c(N4CC5(F)CCC(F)(C4)N5)nc(OC[C@@]45CCCN4C[C@H](F)C5)nc3c2F)c2cccnc2c1N [Example 2-8]
- EC50 [1]: > 1000 nM
- EC50 [2]: > 1000 nM
- IC50 [3]: > 100 nM
- IC50 (GDP-loaded KRAS-G12V): > 100 nM
- EC50 [4]: > 1000 nM
- IC50 (GDP-loaded KRAS-G12C): > 100 nM
- IC50 (GDP-loaded KRAS-G12D): > 100 nM
- EC50 [5]: > 1000 nM

SMILES: Cc1cc(-c2c(Cl)cc3c(N4CC5(F)CCC(F)(C4)N5)nc(OC[C@@]45CCCN4C[C@H](F)C5)nc3c2F)c2cccnc2c1N [Example 2-9]
- EC50 [1]: > 1000 nM
- EC50 [2]: > 1000 nM
- IC50 [3]: > 100 nM
- IC50 (GDP-loaded KRAS-G12V): > 100 nM
- EC50 [4]: > 1000 nM
- IC50 (GDP-loaded KRAS-G12C): > 100 nM
- IC50 (GDP-loaded KRAS-G12D): > 100 nM
- EC50 [5]: > 1000 nM

SMILES: C#Cc1c(F)ccc2cc(N)cc(-c3c(F)cc4c(N5CC6(F)CCC(F)(C5)N6)nc(OCC56CCCN5CCC6)nc4c3F)c12 [Example 2-10]
- EC50 [1]: 5.34 nM
- EC50 [2]: 8.62 nM
- IC50 [3]: 3.67 nM
- IC50 (GDP-loaded KRAS-G12V): 4.17 nM
- EC50 [4]: 49 nM
- IC50 (GDP-loaded KRAS-G12C): 4.22 nM
- IC50 (GDP-loaded KRAS-G12D): 17.4 nM
- EC50 [5]: 150 nM

SMILES: C#Cc1c(F)ccc2cc(O)cc(-c3ncc4c(N5CC6(F)CCC(F)(C5)N6)nc(OC[C@@H]5CC[C@]6(COc7cc(C(F)(F)F)ncn7)CCCN56)nc4c3F)c12 [Example 2-11]
- EC50 [1]: 24.5 nM
- EC50 [2]: 5.79 nM
- IC50 [3]: 12.3 nM
- IC50 (GDP-loaded KRAS-G12V): 22.2 nM
- EC50 [4]: 56.3 nM
- IC50 (GDP-loaded KRAS-G12C): 16.8 nM
- IC50 (GDP-loaded KRAS-G12D): 11.6 nM
- EC50 [5]: 54.5 nM

SMILES: C#Cc1c(F)ccc2cc(N)cc(-c3ncc4c(N5CC6(F)CCC(F)(C5)N6)nc(OC[C@@]56CCCN5C[C@H](F)C6)nc4c3F)c12 [Example 5-1, 4-(4-(1,5-difluoro-3,8-diazabicyclo[3.2.1]octan-3-yl)-8-fluoro-2-(((2R,7aS)-2-fluorotetrahydro-1H-pyrrolizin-7a(5H)-yl)methoxy)pyrido[4,3-d]pyrimidin-7-yl)-5-ethynyl-6-fluoronaphthalen-2-amine]
- EC50 [1]: 2.94 nM
- EC50 [2]: 4.99 nM
- IC50 [3]: 2.31 nM
- IC50 (GDP-loaded KRAS-G12V): 7.59 nM
- EC50 [4]: 8.41 nM
- IC50 (GDP-loaded KRAS-G12C): 2.78 nM
- IC50 (GDP-loaded KRAS-G12D): 15.1 nM
- EC50 [5]: 25.9 nM

SMILES: C#Cc1c(F)ccc2cc(N)cc(-c3ncc4c(N5CC6(F)CCC(F)(C5)N6)nc(OC[C@@]56CCCN5[C@H](COc5cc(C(F)(F)F)ncn5)CC6)nc4c3F)c12 [Example 5-2]
- EC50 [1]: 6.04 nM
- EC50 [2]: 3.24 nM
- IC50 [3]: 0.94 nM
- IC50 (GDP-loaded KRAS-G12V): 4.32 nM
- EC50 [4]: 27.1 nM
- IC50 (GDP-loaded KRAS-G12C): 1.38 nM
- IC50 (GDP-loaded KRAS-G12D): 10.3 nM
- EC50 [5]: 63.9 nM

SMILES: C#Cc1c(F)ccc2cc(N)cc(-c3ncc4c(N5CC6(F)CCC(F)(C5)N6)nc(OCC56CCCN5CCC6)nc4c3F)c12 [Example 5-3]
- EC50 [1]: 11.6 nM
- EC50 [2]: 15.6 nM
- IC50 [3]: 6.62 nM
- IC50 (GDP-loaded KRAS-G12V): 26.1 nM
- EC50 [4]: 278 nM
- IC50 (GDP-loaded KRAS-G12C): 6.7 nM
- IC50 (GDP-loaded KRAS-G12D): 42.5 nM
- EC50 [5]: 760 nM

SMILES: Cc1cc(N)nc(-c2c(F)cc3c(N4CC5(F)CCC(F)(C4)N5)nc(OC[C@@]45CCCN4C[C@H](F)C5)nc3c2F)c1C(F)(F)F [Example 6-1, 6-(4-(1,5-difluoro-3,8-diazabicyclo[3.2.1]octan-3-yl)-6,8-difluoro-2-(((2R,7aS)-2-fluorotetrahydro-1H-pyrrolizin-7a(5H)-yl)methoxy)quinazolin-7-yl)-4-methyl-5-(trifluoromethyl)pyridin-2-amine]
- EC50 [1]: 48.4 nM
- EC50 [2]: 350 nM
- IC50 [3]: > 100 nM
- IC50 (GDP-loaded KRAS-G12V): > 100 nM
- EC50 [4]: 616 nM
- IC50 (GDP-loaded KRAS-G12C): > 100 nM
- IC50 (GDP-loaded KRAS-G12D): > 100 nM
- EC50 [5]: > 1000 nM

SMILES: Fc1cc2c(N3CC4(F)CCC(F)(C3)N4)nc(OC[C@@]34CCCN3C[C@H](F)C4)nc2c(F)c1-c1csc2ncnc(Cl)c12 [Example 6-2]
- EC50 [1]: > 1000 nM
- EC50 [2]: > 1000 nM
- IC50 [3]: > 100 nM
- IC50 (GDP-loaded KRAS-G12V): > 100 nM
- EC50 [4]: > 1000 nM
- IC50 (GDP-loaded KRAS-G12C): > 100 nM
- IC50 (GDP-loaded KRAS-G12D): > 100 nM
- EC50 [5]: > 1000 nM

SMILES: Cc1cc(N)nc(-c2c(Cl)cc3c(N4CC5(F)CCC(F)(C4)N5)nc(OC[C@@]45CCCN4C[C@H](F)C5)nc3c2F)c1C(F)(F)F [Example 7-1]
- EC50 [1]: 47.5 nM
- EC50 [2]: 233 nM
- IC50 [3]: > 89.2 nM
- IC50 (GDP-loaded KRAS-G12V): > 100 nM
- EC50 [4]: 672 nM
- IC50 (GDP-loaded KRAS-G12C): > 100 nM
- IC50 (GDP-loaded KRAS-G12D): > 100 nM
- EC50 [5]: > 1000 nM

SMILES: Nc1cc2ccc(F)cc2c(-c2c(Cl)cc3c(N4CC5(F)CCC(F)(C4)N5)nc(OC[C@@]45CCCN4C[C@H](F)C5)nc3c2F)n1 [Example 7-2]
- EC50 [1]: 524 nM
- EC50 [2]: > 1000 nM
- IC50 [3]: > 100 nM
- IC50 (GDP-loaded KRAS-G12V): > 100 nM
- EC50 [4]: > 1000 nM
- IC50 (GDP-loaded KRAS-G12C): > 100 nM
- IC50 (GDP-loaded KRAS-G12D): > 100 nM
- EC50 [5]: > 1000 nM

SMILES: N#Cc1c(N)sc2c(F)ccc(-c3c(Cl)cc4c(N5CC6(F)CCC(F)(C5)N6)nc(OC[C@@]56CCCN5C[C@H](F)C6)nc4c3F)c12 [Example 7-3]
- EC50 [1]: 5.2 nM
- EC50 [2]: 16.8 nM
- IC50 [3]: 0.63 nM
- IC50 (GDP-loaded KRAS-G12V): 5.09 nM
- EC50 [4]: 4.82 nM
- IC50 (GDP-loaded KRAS-G12C): 1.7 nM
- IC50 (GDP-loaded KRAS-G12D): 12.6 nM
- EC50 [5]: 39.7 nM

SMILES: Nc1nc2c(-c3c(Cl)cc4c(N5CC6(F)CCC(F)(C5)N6)nc(OC[C@@]56CCCN5C[C@H](F)C6)nc4c3F)ccc(F)c2s1 [Example 7-4]
- EC50 [1]: 13.5 nM
- EC50 [2]: 42.8 nM
- IC50 [3]: 14.3 nM
- IC50 (GDP-loaded KRAS-G12V): > 82.3 nM
- EC50 [4]: 118 nM
- IC50 (GDP-loaded KRAS-G12C): 42.5 nM
- IC50 (GDP-loaded KRAS-G12D): > 100 nM
- EC50 [5]: 459 nM

SMILES: C#Cc1c(F)ccc2cc(N)nc(-c3c(Cl)cc4c(N5CC6(F)CCC(F)(C5)N6)nc(OC[C@@]56CCCN5C[C@H](F)C6)nc4c3F)c12 [Example 7-5]
- EC50 [1]: 21.8 nM
- EC50 [2]: 179 nM
- IC50 [3]: > 100 nM
- IC50 (GDP-loaded KRAS-G12V): > 100 nM
- EC50 [4]: 548 nM
- IC50 (GDP-loaded KRAS-G12C): > 100 nM
- IC50 (GDP-loaded KRAS-G12D): > 100 nM
- EC50 [5]: 735 nM
